target: T1, Recombinant human GR (Homo sapiens, UniProt P04150); experiment: GR competitor assay (receptor competitor assay by fluorescence polarization, Invitrogen kit P2816); settings: 20 μM test compound solution (10 μL per well plus 5 μL 4×GS1 and 5 μL 4×GR); relative to 2 mM dexamethasone positive control; ratios of 100% or more are indicated by 100%; read-out: GR Binding ratio (%)
T1 construct: purchased Invitrogen P2816
T1 sequence (P04150 1-777): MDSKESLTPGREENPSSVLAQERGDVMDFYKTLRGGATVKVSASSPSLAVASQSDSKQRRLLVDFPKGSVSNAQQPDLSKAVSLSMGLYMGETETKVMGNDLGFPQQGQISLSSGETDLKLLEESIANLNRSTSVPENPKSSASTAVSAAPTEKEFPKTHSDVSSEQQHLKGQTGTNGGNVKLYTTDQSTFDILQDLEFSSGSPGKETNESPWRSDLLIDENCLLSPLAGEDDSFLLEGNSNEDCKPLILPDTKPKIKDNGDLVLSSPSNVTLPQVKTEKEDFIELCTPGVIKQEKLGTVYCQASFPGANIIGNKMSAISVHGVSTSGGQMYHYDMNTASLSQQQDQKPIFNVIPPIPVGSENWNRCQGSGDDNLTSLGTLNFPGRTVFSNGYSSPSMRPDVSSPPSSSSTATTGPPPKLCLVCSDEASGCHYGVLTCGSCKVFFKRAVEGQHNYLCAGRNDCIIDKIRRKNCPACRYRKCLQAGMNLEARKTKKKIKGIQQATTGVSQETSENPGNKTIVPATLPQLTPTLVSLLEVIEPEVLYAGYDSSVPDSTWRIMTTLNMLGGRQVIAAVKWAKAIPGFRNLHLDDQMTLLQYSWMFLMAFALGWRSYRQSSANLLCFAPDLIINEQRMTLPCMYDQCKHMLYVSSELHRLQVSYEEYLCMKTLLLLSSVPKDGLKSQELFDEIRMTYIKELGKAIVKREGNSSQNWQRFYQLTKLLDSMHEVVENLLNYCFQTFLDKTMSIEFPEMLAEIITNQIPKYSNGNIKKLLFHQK
Experimental: In order to evaluate a binding activity to GR, a receptor competitor assay was carried out by a fluorescence polarization method. In the assay, a GR competitor assay kit (manufactured by Invitrogen, cat No. P2816) was used, and a procedure was carried out according to the protocol attached to the kit. Hereinafter, the specific method will be described.
GR screening buffer: A buffer containing 10 mM potassium phosphate (pH 7.4), 20 mM sodium molybdate (Na2MoO4), 0.1 mM ethylene diamine tetraacetic acid (EDTA), 5 mM dithiothreitol (DTT), 0.1 mM stabilizing peptide and 2% dimethylsulfoxide was prepared.
4×GS1 solution: Fluormone™ GS1, which is a fluorescent glucocorticoid ligand, was diluted with GR screening buffer, whereby a 4 nM solution was prepared.
4×GR solution: Recombinant human GR was diluted with GR screening buffer, whereby a 16 nM solution was prepared.
After a test compound was dissolved in dimethylsulfoxide, the resulting solution was diluted with GR screening buffer, whereby a 20 μM test compound solution was prepared.
1) The test compound solution was added in an amount of 10 μL into each well of a 384-well plate, and then, 4×GS1 solution and 4×GR solution were added in an amount of 5 μL into each well, respectively.
2) The plate was incubated in a dark place at room temperature for 2 to 4 hours.
3) By using a multimode plate reader, Analyst™ HT (manufactured by LJL Biosystems), fluorescence polarization of each well was measured. As the blank, a well containing GR screening buffer in place of the test compound and 4×GS1 solution was used.
4) The same procedure as that in the above 1) to 3) was carried out except that GR screening buffer was used in place of the test compound solution, and the obtained result was taken as the negative control.
5) The same procedure as that in the above 1) to 3) was carried out except that 2 mM dexamethasone was used in place of the test compound solution, and the obtained result was taken as the positive control.
A GR binding ratio (%) was calculated from the following equation. GR binding ratio(%)=100×[1−(fluorescence polarization of test compound solution−fluorescence polarization of positive control solution)/(fluorescence polarization of negative control solution fluorescence polarization of positive control solution)] (Test Results and Discussion)

SMILES	inhibition at 20 µM (stock) [%]
COc1cc(OC(=O)c2ccc(C)nc2)ccc1-c1ccc2c(c1COC(=O)c1ccc(C)s1)C(C)=CC(C)(C)N2 [Compound 1-2, 6-[2-Methoxy-4-(6-methylpyridin-3-ylcarbonyloxy)phenyl]-5-(5-methylthiophen-2-ylcarbonyloxymethyl)-2,2,4-trimethyl-1,2-dihydroquinoline]	93
COc1cc(OC(=O)c2ccoc2)ccc1-c1ccc2c(c1COC(=O)c1ccc(C)cc1)C(C)=CC(C)(C)N2 [Compound 1-3, 6-[4-(Furan-3-ylcarbonyloxy)-2-methoxyphenyl]-5-(4-methylbenzoyloxymethyl)-2,2,4-trimethyl-1,2-dihydroquinoline]	100
COc1cc(OC(=O)c2ccccc2Cl)ccc1-c1ccc2c(c1COC(=O)c1ccc(C)cc1)C(C)=CC(C)(C)N2 [Compound 1-6, 6-[4-(2-Chlorobenzoyloxy)-2-methoxyphenyl]-5-(4-methylbenzoyloxymethyl)-2,2,4-trimethyl-1,2-dihydroquinoline]	100
COc1ccccc1C(=O)Oc1ccc(-c2ccc3c(c2COC(=O)c2ccc(C)cc2)C(C)=CC(C)(C)N3)c(OC)c1 [Compound 1-7, 6-[2-Methoxy-4-(2-methoxybenzoyloxy)phenyl]-5-(4-methylbenzoyloxymethyl)-2,2,4-trimethyl-1,2-dihydroquinoline]	100
COc1cc(OC(=O)c2cccnc2)ccc1-c1ccc2c(c1COC(=O)c1ccc(C)cc1)C(C)=CC(C)(C)N2 [Compound 1-8, 5-(4-Methylbenzoyloxymethyl)-6-[2-methoxy-4-(pyridin-3-ylcarbonyloxy)phenyl]-2,2,4-trimethyl-1,2-dihydroquinoline]	100
COc1cc(OC(=O)c2ccco2)ccc1-c1ccc2c(c1COC(=O)c1ccc(C)cc1)C(C)=CC(C)(C)N2 [Compound 1-10, 6-[4-(Furan-2-ylcarbonyloxy)-2-methoxyphenyl]-5-(4-methylbenzoyloxymethyl)-2,2,4-trimethyl-1,2-dihydroquinoline]	100
CCCC(=O)Oc1ccc(-c2ccc3c(c2COC(=O)c2ccc(C)s2)C(C)=CC(C)(C)N3)c(OC)c1 [Compound 1-11, 6-(4-Butyryloxy-2-methoxyphenyl)-5-(5-methylthiophen-2-ylcarbonyloxymethyl)-2,2,4-trimethyl-1,2-dihydroquinoline]	100
COc1ccccc1C(=O)Oc1ccc(-c2ccc3c(c2COC(=O)c2ccc(C)s2)C(C)=CC(C)(C)N3)c(OC)c1 [Compound 1-12, 6-[2-Methoxy-4-(2-methoxybenzoyloxy)phenyl]-5-(5-methylthiophen-2-ylcarbonyloxymethyl)-2,2,4-trimethyl-1,2-dihydroquinoline]	93
COc1cc(OC(=O)c2cccnc2)ccc1-c1ccc2c(c1COC(=O)c1ccc(C)s1)C(C)=CC(C)(C)N2 [Compound 1-13, 6-[2-Methoxy-4-(pyridin-3-ylcarbonyloxy)phenyl]-5-(5-methylthiophen-2-ylcarbonyloxymethyl)-2,2,4-trimethyl-1,2-dihydroquinoline]	96
COc1cc(OC(=O)c2ccco2)ccc1-c1ccc2c(c1COC(=O)c1ccc(C)s1)C(C)=CC(C)(C)N2 [Compound 1-14, 6-[4-(Furan-2-ylcarbonyloxy)-2-methoxyphenyl]-5-(5-methylthiophen-2-ylcarbonyloxymethyl)-2,2,4-trimethyl-1,2-dihydroquinoline]	96
COc1cc(OC(=O)c2ccccc2Cl)ccc1-c1ccc2c(c1COC(=O)c1ccc(C)s1)C(C)=CC(C)(C)N2 [Compound 1-15, 6-[4-(2-Chlorobenzoyloxy)-2-methoxyphenyl]-5-(5-methylthiophen-2-ylcarbonyloxymethyl)-2,2,4-trimethyl-1,2-dihydroquinoline]	91
COc1cc(OC(=O)c2cccc(Cl)c2)ccc1-c1ccc2c(c1COC(=O)c1ccc(C)s1)C(C)=CC(C)(C)N2 [Compound 1-16, 6-[4-(3-Chlorobenzoyloxy)-2-methoxyphenyl]-5-(5-methylthiophen-2-ylcarbonyloxymethyl)-2,2,4-trimethyl-1,2-dihydroquinoline]	85
COc1cc(OC(=O)c2ccc(Cl)cc2)ccc1-c1ccc2c(c1COC(=O)c1ccc(C)s1)C(C)=CC(C)(C)N2 [Compound 1-17, 6-[4-(4-Chlorobenzoyloxy)-2-methoxyphenyl]-5-(5-methylthiophen-2-ylcarbonyloxymethyl)-2,2,4-trimethyl-1,2-dihydroquinoline]	84
COc1cc(OC(=O)c2ccccc2)ccc1-c1ccc2c(c1COC(=O)c1ccc(C)s1)C(C)=CC(C)(C)N2 [Compound 1-18, 6-(4-Benzoyloxy-2-methoxyphenyl)-5-(5-methylthiophen-2-ylcarbonyloxymethyl)-2,2,4-trimethyl-1,2-dihydroquinoline]	91
COc1cc(OC(=O)c2ccccc2C)ccc1-c1ccc2c(c1COC(=O)c1ccc(C)s1)C(C)=CC(C)(C)N2 [Compound 1-19, 6-[2-Methoxy-4-(2-methylbenzoyloxy)phenyl]-5-(5-methylthiophen-2-ylcarbonyloxymethyl)-2,2,4-trimethyl-1,2-dihydroquinoline]	89
COc1cc(OC(=O)c2ccccc2F)ccc1-c1ccc2c(c1COC(=O)c1ccc(C)s1)C(C)=CC(C)(C)N2 [Compound 1-20, 6-[4-(2-Fluorobenzoyloxy)-2-methoxyphenyl]-5-(5-methylthiophen-2-ylcarbonyloxymethyl)-2,2,4-trimethyl-1,2-dihydroquinoline]	90
COc1ccc(C(=O)Oc2ccc(-c3ccc4c(c3COC(=O)c3ccc(C)s3)C(C)=CC(C)(C)N4)c(OC)c2)cc1 [Compound 1-22, 6-[2-Methoxy-4-(4-methoxybenzoyloxy)phenyl]-5-(5-methylthiophen-2-ylcarbonyloxymethyl)-2,2,4-trimethyl-1,2-dihydroquinoline]	91
COc1cc(OC(=O)c2cncnc2)ccc1-c1ccc2c(c1COC(=O)c1ccc(C)s1)C(C)=CC(C)(C)N2 [Compound 1-23, 6-[2-Methoxy-4-(pyrimidin-5-ylcarbonyloxy)phenyl]-5-(5-methylthiophen-2-ylcarbonyloxymethyl)-2,2,4-trimethyl-1,2-dihydroquinoline]	94
COc1cc(OC(=O)c2ccsc2)ccc1-c1ccc2c(c1COC(=O)c1ccc(C)s1)C(C)=CC(C)(C)N2 [Compound 1-24, 6-[2-Methoxy-4-(thiophen-3-ylcarbonyloxy)phenyl]-5-(5-methylthiophen-2-ylcarbonyloxymethyl)-2,2,4-trimethyl-1,2-dihydroquinoline]	94
COc1cc(OC(=O)c2ccoc2)ccc1-c1ccc2c(c1COC(=O)c1ccc(C)s1)C(C)=CC(C)(C)N2 [Compound 1-25, 6-[4-(Furan-3-ylcarbonyloxy)-2-methoxyphenyl]-5-(5-methylthiophen-2-ylcarbonyloxymethyl)-2,2,4-trimethyl-1,2-dihydroquinoline]	94
COC(=O)c1cccc(C(=O)Oc2ccc(-c3ccc4c(c3COC(=O)c3ccc(C)s3)C(C)=CC(C)(C)N4)c(OC)c2)c1 [Compound 1-26, 6-[2-Methoxy-4-(3-methoxycarbonylbenzoyloxy)phenyl]-5-(5-methylthiophen-2-ylcarbonyloxymethyl)-2,2,4-trimethyl-1,2-dihydroquinoline]	94

Reference: patent US8563551B2, “Method for preventing or treating a disease related to the glucocorticoid receptor” (Santen Pharmaceutical Co., Ltd., priority 2006, dated 2013)
